Where “and” joins values, the source holds several entries; their conditions need not be identical. Identical values can stand only once. Entries after “also recorded” stand apart in the source; their conditions may differ.
Key:
hBChE [1] = target: T1, hBChE (Homo sapiens, UniProt P06276); assay: Ellman method cholinesterase assay, hBChE; type: biochemical; settings: 5-min pre-incubation; for RA ± SD (%) at 100 µM, hBChE: residual activity at 100 µM compound, RA above 50% considered inactive; for IC50: 3 independent experiments, read-out: IC50 ± SEM, hBChE
T1 construct: gift from Xavier Brazzolotto, Florian Nachon and José Dias (IRBA, Brétigny-sur-Orge, France)
T1 sequence (P06276 29-602): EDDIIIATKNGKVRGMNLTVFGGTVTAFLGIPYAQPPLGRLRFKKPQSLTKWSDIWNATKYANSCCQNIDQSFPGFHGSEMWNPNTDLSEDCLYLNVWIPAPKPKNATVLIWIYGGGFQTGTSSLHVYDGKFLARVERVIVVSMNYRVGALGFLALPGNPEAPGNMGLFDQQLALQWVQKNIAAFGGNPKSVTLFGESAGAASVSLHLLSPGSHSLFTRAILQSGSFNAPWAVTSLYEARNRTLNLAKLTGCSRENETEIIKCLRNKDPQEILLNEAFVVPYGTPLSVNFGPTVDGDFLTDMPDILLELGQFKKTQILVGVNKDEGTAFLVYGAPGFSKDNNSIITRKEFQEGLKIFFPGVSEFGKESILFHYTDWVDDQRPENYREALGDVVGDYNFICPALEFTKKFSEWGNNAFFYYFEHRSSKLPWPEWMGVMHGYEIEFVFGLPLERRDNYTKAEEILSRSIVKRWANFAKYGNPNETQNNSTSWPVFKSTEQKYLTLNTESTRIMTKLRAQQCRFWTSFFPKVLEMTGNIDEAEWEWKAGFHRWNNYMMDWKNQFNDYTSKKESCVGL
Procedure: (§1) Inhibitory potencies against human (h)AChE and hBChE were determined using the Ellman method and inhibitory potencies against hMAO-A and hMAO-B were determined with horseradish peroxidase (HRP)-Amplex Red coupled assay.
(§2) The inhibitory potencies of the compounds against the ChEs were determined using the Ellman method. 5,5′-Dithiobis (2-nitrobenzoic acid) (Ellman’s reagent; DTNB, St. Louis, MO, USA), butyrylthiocholine iodide, and acetylthiocholine iodides were from Sigma-Aldrich. Recombinant hAChE and hBChE at the stock concentration of 16.5 mg/mL and 14.5 mg/mL, respectively, were kindly donated by Xavier Brazzolotto, Florian Nachon, and José Dias (IRBA, Brétigny-sur-Orge, France). The enzyme solutions were prepared by dilution of the concentrated stocks in 0.1 M phosphate-buffered solution (pH 8.0). The reactions were carried out in a final volume of 300 µL of 0.1 M phosphate-buffered solution, pH 8.0, containing 370 µM DTNB, 500 μM butyrylthiocholine/acetylthiocholine, and approximately 1 nM or 50 pM hBChE or hAChE, respectively. The reactions were started by the addition of the substrate after 5-min pre-incubation at room temperature. For time-dependency measurements of hBChE inhibition, the pre-incubation time was varied (i.e., 1 min, 5 min, 15 min, 30 min). The final content of the organic solvent (DMSO) was always 1%. The formation of the yellow 5-thio-2-nitrobenzoate anion as a result of the reaction of DTNB with the thiocholines was monitored for 1 min as the change in absorbance at 412 nm, using a 96-well microplate reader (SynergyTM H4; BioTek Instruments, Inc., USA). The initial velocities in the presence (vi) and the absence (vo) of the test compounds were calculated. The inhibitory potencies were expressed as the residual activities, according to RA = (vi − b)/(vo − b), where b is the blank value using phosphate buffer without ChEs. […] The IC50 values were obtained by plotting the residual ChEs activities against the applied inhibitor concentrations, with the experimental data fitted to a four-parameter logistic function (GraphPad Prism 9.0; GraphPad Software Inc., San Diego, CA, USA).

hAChE = target: T2, hAChE (Homo sapiens, UniProt P22303); assay: Ellman method cholinesterase assay, hAChE; type: biochemical; settings: residual activity at 100 µM compound; 5-min pre-incubation; RA above 50% considered inactive; read-out: RA ± SD (%) at 100 µM, hAChE
T2 construct: gift from Xavier Brazzolotto, Florian Nachon and José Dias (IRBA, Brétigny-sur-Orge, France)
T2 sequence (P22303 32-614): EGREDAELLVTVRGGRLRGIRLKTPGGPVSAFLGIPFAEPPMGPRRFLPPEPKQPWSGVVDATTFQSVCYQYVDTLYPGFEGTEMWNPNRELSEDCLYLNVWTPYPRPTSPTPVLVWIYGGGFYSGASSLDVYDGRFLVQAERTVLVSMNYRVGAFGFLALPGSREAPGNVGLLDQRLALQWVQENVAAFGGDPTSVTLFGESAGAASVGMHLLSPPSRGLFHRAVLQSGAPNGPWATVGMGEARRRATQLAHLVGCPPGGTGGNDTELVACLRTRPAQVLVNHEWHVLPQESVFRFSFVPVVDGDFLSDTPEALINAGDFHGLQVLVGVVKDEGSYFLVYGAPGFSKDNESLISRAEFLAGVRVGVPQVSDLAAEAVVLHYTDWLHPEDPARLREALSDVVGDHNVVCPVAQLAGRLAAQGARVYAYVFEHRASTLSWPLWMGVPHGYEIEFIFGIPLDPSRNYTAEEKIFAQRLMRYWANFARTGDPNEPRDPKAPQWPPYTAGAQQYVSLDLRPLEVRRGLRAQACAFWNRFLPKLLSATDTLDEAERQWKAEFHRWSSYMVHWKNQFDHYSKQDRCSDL
Procedure: as §1, §2

hMAO-B [2] = target: T3, hMAO-B (Homo sapiens, UniProt P27338); assay: HRP-Amplex Red coupled fluorimetric assay, hMAO-B; type: biochemical; settings: 15 min incubation at 37 °C; 3 independent experiments; read-out: IC50 ± SEM, hMAO-B
T3 construct: purchased Sigma Aldrich; host or cells: BTI-TN-5B1-4 insect cells
T3 sequence (P27338 1-520): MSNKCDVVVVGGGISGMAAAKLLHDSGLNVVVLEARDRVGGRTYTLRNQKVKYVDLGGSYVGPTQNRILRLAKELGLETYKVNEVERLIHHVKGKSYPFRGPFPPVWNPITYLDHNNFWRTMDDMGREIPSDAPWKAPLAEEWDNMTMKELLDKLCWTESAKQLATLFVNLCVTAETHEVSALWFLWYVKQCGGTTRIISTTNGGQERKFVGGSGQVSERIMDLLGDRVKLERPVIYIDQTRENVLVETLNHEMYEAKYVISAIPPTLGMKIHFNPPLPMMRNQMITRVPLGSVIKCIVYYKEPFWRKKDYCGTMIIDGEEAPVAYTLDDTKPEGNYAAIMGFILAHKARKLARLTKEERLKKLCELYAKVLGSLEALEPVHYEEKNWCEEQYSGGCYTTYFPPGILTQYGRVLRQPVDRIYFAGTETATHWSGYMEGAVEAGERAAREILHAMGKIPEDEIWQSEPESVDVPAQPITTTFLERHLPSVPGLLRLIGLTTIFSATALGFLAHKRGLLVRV
Procedure: as §1
(§3) The effects of the test compounds on hMAO were investigated using a fluorimetric assay. Recombinant hMAO, expressed in BTI-TN-5B1-4 insect cells, p-tyramine hydrochloride, and horse-radish peroxidase type II were purchased from Sigma Aldrich, whereas Amplex Red was synthesized as reported previously.
(§4) In brief, 100 µL 50 mM sodium phosphate buffer (pH 7.4, 0.05 vol.% Triton X-114) containing the compounds or the reference inhibitors and hMAO were incubated for 15 min at 37 °C. The reaction was started by adding Amplex Red (final concentration, 250 µM), horseradish peroxidase (final activity, 2 U/mL), and p-tyramine (final concentration, 1 mM). The fluorescence increase (λex = 530 nm, λem = 590 nm) at 37 °C was monitored for 20 min. DMSO was used for control experiments. To determine the blank value (b), phosphate-buffered solution replaced the enzyme. Each measurement was performed in duplicate. The inhibitory potencies were expressed as the residual activities (RA) and IC50 values as described in Section 3.2.1. For the reversibility assay, the previously described protocol was followed.

hMAO-A = target: T4, hMAO-A (Homo sapiens, UniProt P21397); assay: HRP-Amplex Red coupled fluorimetric assay, hMAO-A; type: biochemical; settings: 15 min incubation at 37 °C; for remaining activity at 100 µM: 0.25 h, residual activity at 100 µM compound, RA above 50% considered inactive, read-out: RA ± SD (%) at 100 µM, hMAO-A; for IC50: 3 independent experiments, read-out: IC50 ± SEM, hMAO-A
T4 construct: purchased Sigma Aldrich; host or cells: BTI-TN-5B1-4 insect cells
T4 sequence (P21397 1-527): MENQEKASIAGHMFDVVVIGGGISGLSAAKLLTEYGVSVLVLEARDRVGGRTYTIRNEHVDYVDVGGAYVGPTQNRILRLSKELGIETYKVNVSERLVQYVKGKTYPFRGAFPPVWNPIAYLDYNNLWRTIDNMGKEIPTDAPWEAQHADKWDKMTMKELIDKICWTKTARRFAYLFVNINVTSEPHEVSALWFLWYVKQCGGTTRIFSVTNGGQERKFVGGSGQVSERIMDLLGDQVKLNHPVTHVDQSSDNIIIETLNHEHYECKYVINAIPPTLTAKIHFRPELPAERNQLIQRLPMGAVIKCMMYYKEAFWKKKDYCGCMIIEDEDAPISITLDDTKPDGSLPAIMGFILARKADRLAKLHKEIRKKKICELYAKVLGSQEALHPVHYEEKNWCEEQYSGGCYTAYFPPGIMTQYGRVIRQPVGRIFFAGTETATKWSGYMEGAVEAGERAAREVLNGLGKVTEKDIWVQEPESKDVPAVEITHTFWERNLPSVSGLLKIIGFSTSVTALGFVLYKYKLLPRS
Procedure: as §1, §3, §4

hBChE [3] = target: T1, hBChE; assay: hBChE time-dependency measurements (IC50 shift, varied pre-incubation time); type: biochemical; settings: pre-incubation 1, 5, 15, 30 min
Procedure: as §2
Figure 7 The IC50 shift curves for compounds 13–15 during hBChE inhibition.

hMAO-B [4] = target: T3, hMAO-B; assay: hMAO-B 100-fold dilution reversibility assay and IC50 shift at various pre-incubation times; type: biochemical; settings: for Reversibility of hMAO-B inhibition: 100-fold dilution assay; for Time-dependence of hMAO-B inhibition (IC50 shift): various pre-incubation times
Procedure: as §4
The reversibility was analyzed by one-way ANOVA and post-hoc comparisons were made using two-tailed Student’s t-test. p < 0.05—statistically significant. All data are means ± SEM (n = 2).
Figure 5 (A) A 100-fold dilution assay for hMAO-B inhibitors 12–14. L-Deprenyl was used as an irreversible inhibitor control; safinamide and isatin were used as reversible inhibitor controls. Data are mean values ± SEM (n = 2; each in quadruplicate): ∗, p < 0.05 (one-way ANOVA, with Bonferroni correction, followed by t-tests).

MAO-B = settings: binds covalently to N5 of FAD, crystal complex; cited from earlier work

| SMILES | RA ± SD (%) at 100 µM, hBChE (hBChE [1]) [%] | remaining activity at 100 µM (hAChE) [%] | IC50 (hMAO-B [2]) | remaining activity at 100 µM (hMAO-A) [%] | IC50 (hBChE [1]) | Time-dependence of hBChE inhibition (IC50 shift) (hBChE [3]) | Reversibility of hMAO-B inhibition (hMAO-B [4]) | Time-dependence of hMAO-B inhibition (IC50 shift) (hMAO-B [4]) | IC50 (hMAO-A) [µM] | MAO-B inhibition, type (MAO-B) |
| --- | --- | --- | --- | --- | --- | --- | --- | --- | --- | --- |
| C#CCN1CCC(CCc2cccc(OC)c2)CC1 [Compound 8, 4-(3-methoxyphenethyl)-1-(prop-2-yn-1-yl)piperidine] | 55.5 ± 0.2 | 73.2 ± 8.9 | 0.238 ± 0.0269 µM | 59.8 ± 3.7 | – | – | – | – | – | – |
| C#CCN1CCC(CCc2cccc(OC(=O)N(C)CC)c2)CC1 [Compound 15, 3-(2-(1-(prop-2-yn-1-yl)piperidin-4-yl)ethyl)phenyl ethyl(methyl)carbamate] | – | 60.2 ± 1.8 | 4.3 µM and 8.5 µM | 69.4 ± 9.4 | 8.5 µM and 4.3 µM | time-dependent inhibition | – | – | – | – |
| C#CCN1CCC(CCc2cccc(OC(=O)Nc3ccccc3)c2)CC1 [Compound 13, 3-(2-(1-(prop-2-yn-1-yl)piperidin-4-yl)ethyl)phenyl phenylcarbamate] | – | 51.9 ± 1.4 | 23.6 ± 3 µM | 54 ± 0.4 | 4.4 ± 0.8 µM | IC50 shift was absent | reversible | absence of IC50 shift; also recorded: did not exhibit time-dependent inhibition | – | – |
| C#CCN1CCC(/C=C/c2ccc(O)cc2)CC1 [Compound 9, (E)-4-(2-(1-(prop-2-yn-1-yl)piperidin-4-yl)vinyl)phenol] | 64.9 ± 2.0 | 65.9 ± 3.1 | 12.9 ± 1.1 µM | – | – | – | – | – | 15.5 ± 0.9 | – |
| C#CCN1CCC(CCc2ccc(OC(=O)Nc3ccccc3)cc2)CC1 [Compound 12, 4-(2-(1-(prop-2-yn-1-yl)piperidin-4-yl)ethyl)phenyl phenylcarbamate] | 60.2 ± 1.8 | 52.2 ± 1.7 | 9.7 ± 1.2 µM | 56.7 ± 0.9 | – | – | reversible | absence of IC50 shift; also recorded: did not exhibit time-dependent inhibition | – | – |
| C#CCN1CCC(CCc2ccc(OC(=O)N(C)CC)cc2)CC1 [Compound 14, 4-(2-(1-(prop-2-yn-1-yl)piperidin-4-yl)ethyl)phenyl ethyl(methyl)carbamate] | – | 66.1 ± 4.8 | 0.181 ± 0.0287 µM | 51.2 ± 1.5 | 75.5 ± 8.4 µM | IC50 shift was absent | irreversible | time-dependent hMAO-B inhibition | – | – |
| C#CCN1CCC(CCc2cccc(O)c2)CC1 [Compound 11, 3-(2-(1-(prop-2-yn-1-yl)piperidin-4-yl)ethyl)phenol] | 72.9 ± 2.8 | 54.7 ± 2.9 | 52.5 ± 14.8 µM | 63.3 ± 0.4 | – | – | – | – | – | – |
| C#CCN1CCC(/C=C/c2ccc(F)cc2)CC1 [A] | – | – | – | – | – | – | – | – | – | potent and irreversible MAO-B inhibitor |
| C#CCN1CCC(CCc2ccc(OC)cc2)CC1 [Compound 7, 4-(4-methoxyphenethyl)-1-(prop-2-yn-1-yl)piperidine] | 51.2 ± 1.6 | 73.1 ± 4.3 | – | 62.2 ± 1.8 | – | – | – | – | – | – |
| C#CCN1CCC(CCc2ccc(O)cc2)CC1 [Compound 10, 4-(2-(1-(prop-2-yn-1-yl)piperidin-4-yl)ethyl)phenol] | 53.8 ± 0.6 | 61.4 ± 2.7 | – | – | – | – | – | – | 34 ± 5.8 | – |
| C#CCN1CCC(/C=C/c2ccc(OC)cc2)CC1 [Compound 6, (E)-4-(4-methoxystyryl)-1-(prop-2-yn-1-yl)piperidine] | 68.8 ± 0.6 | 61.9 ± 1.2 | – | 52.6 ± 0.7 | – | – | – | – | – | – |

Reference: publication PMC8305717, “4-Phenethyl-1-Propargylpiperidine-Derived Dual Inhibitors of Butyrylcholinesterase and Monoamine Oxidase B” (Molecules, 2021)
